Experimental data as given in the NIST ThermoML archive (doi:10.1021/je300692s).
Numbers after ± are expanded uncertainties.

Experiment: activity coefficient (dimensionless); of the first substance listed, at infinite dilution; xn = mol fraction of the nth substance listed
Conditions: 101 kPa, Liquid, Chromatography, x1 = 0

| SMILES | activity coefficient (322.6 K) | activity coefficient (332.5 K) | activity coefficient (342.8 K) | activity coefficient (323 K) | activity coefficient (333 K) | activity coefficient (343.1 K) | activity coefficient (322.9 K) |
| --- | --- | --- | --- | --- | --- | --- | --- |
| CCCCCCCCCC [decane] + CCCCCCCCCC[N+]1(C)CCCC1.O=S(=O)([N-]S(=O)(=O)C(F)(F)F)C(F)(F)F | 9.42 ± 0.99 | 9.05 ± 0.95 | 8.7 ± 0.91 | – | – | – | – |
| CCCCCCCCCC [decane] + CCCCCCCC[N+]1(C)CCCC1.O=S(=O)([N-]S(=O)(=O)C(F)(F)F)C(F)(F)F | – | – | – | 14.8 ± 0.88 | 12.5 ± 0.75 | 11 ± 0.66 | – |
| CCCCCCCCCC [decane] + CCCCCC[N+]1(C)CCCC1.O=S(=O)([N-]S(=O)(=O)C(F)(F)F)C(F)(F)F | – | – | – | – | 19 ± 2 | 22.7 ± 2.4 | 26 ± 2.7 |
| ClCCl [dichloromethane] + CCCCCCCCCC[N+]1(C)CCCC1.O=S(=O)([N-]S(=O)(=O)C(F)(F)F)C(F)(F)F | 0.27 ± 0.04 | 0.3 ± 0.04 | 0.3 ± 0.04 | – | – | – | – |
| ClCCl [dichloromethane] + CCCCCCCC[N+]1(C)CCCC1.O=S(=O)([N-]S(=O)(=O)C(F)(F)F)C(F)(F)F | – | – | – | 0.26 ± 0.04 | 0.27 ± 0.04 | 0.28 ± 0.04 | – |
| ClCCl [dichloromethane] + CCCCCC[N+]1(C)CCCC1.O=S(=O)([N-]S(=O)(=O)C(F)(F)F)C(F)(F)F | – | – | – | – | 0.36 ± 0.04 | 0.35 ± 0.04 | 0.31 ± 0.04 |
| CCOCC [diethyl ether] + CCCCCCCCCC[N+]1(C)CCCC1.O=S(=O)([N-]S(=O)(=O)C(F)(F)F)C(F)(F)F | 1.27 ± 0.13 | 1.25 ± 0.13 | 1.25 ± 0.13 | – | – | – | – |
| CCOCC [diethyl ether] + CCCCCCCC[N+]1(C)CCCC1.O=S(=O)([N-]S(=O)(=O)C(F)(F)F)C(F)(F)F | – | – | – | 1.34 ± 0.14 | 1.34 ± 0.14 | 1.14 ± 0.12 | – |
| CCOCC [diethyl ether] + CCCCCC[N+]1(C)CCCC1.O=S(=O)([N-]S(=O)(=O)C(F)(F)F)C(F)(F)F | – | – | – | – | 1.76 ± 0.18 | 1.76 ± 0.18 | 1.56 ± 0.16 |
| CC(C)OC(C)C [diisopropyl ether] + CCCCCCCCCC[N+]1(C)CCCC1.O=S(=O)([N-]S(=O)(=O)C(F)(F)F)C(F)(F)F | 2.29 ± 0.24 | 2.28 ± 0.24 | 2.26 ± 0.24 | – | – | – | – |
| CC(C)OC(C)C [diisopropyl ether] + CCCCCCCC[N+]1(C)CCCC1.O=S(=O)([N-]S(=O)(=O)C(F)(F)F)C(F)(F)F | – | – | – | 2.57 ± 0.27 | 2.58 ± 0.27 | 2.26 ± 0.24 | – |
| CC(C)OC(C)C [diisopropyl ether] + CCCCCC[N+]1(C)CCCC1.O=S(=O)([N-]S(=O)(=O)C(F)(F)F)C(F)(F)F | – | – | – | – | 3.56 ± 0.37 | 3.53 ± 0.37 | 3.18 ± 0.33 |
| CCO [ethanol] + CCCCCCCCCC[N+]1(C)CCCC1.O=S(=O)([N-]S(=O)(=O)C(F)(F)F)C(F)(F)F | 1.46 ± 0.15 | 1.34 ± 0.14 | 1.22 ± 0.13 | – | – | – | – |
| CCO [ethanol] + CCCCCCCC[N+]1(C)CCCC1.O=S(=O)([N-]S(=O)(=O)C(F)(F)F)C(F)(F)F | – | – | – | 1.33 ± 0.14 | 1.26 ± 0.13 | 0.98 ± 0.1 | – |
| CCO [ethanol] + CCCCCC[N+]1(C)CCCC1.O=S(=O)([N-]S(=O)(=O)C(F)(F)F)C(F)(F)F | – | – | – | – | 1.4 ± 0.14 | 1.31 ± 0.13 | 1.41 ± 0.15 |
| CCc1ccccc1 [ethylbenzene] + CCCCCCCCCC[N+]1(C)CCCC1.O=S(=O)([N-]S(=O)(=O)C(F)(F)F)C(F)(F)F | 1.01 ± 0.05 | 1.04 ± 0.06 | 1.06 ± 0.06 | – | – | – | – |
| CCc1ccccc1 [ethylbenzene] + CCCCCCCC[N+]1(C)CCCC1.O=S(=O)([N-]S(=O)(=O)C(F)(F)F)C(F)(F)F | – | – | – | 1.03 ± 0.1 | 0.98 ± 0.1 | 1.04 ± 0.11 | – |
| CCc1ccccc1 [ethylbenzene] + CCCCCC[N+]1(C)CCCC1.O=S(=O)([N-]S(=O)(=O)C(F)(F)F)C(F)(F)F | – | – | – | – | 1.43 ± 0.15 | 1.46 ± 0.15 | 1.38 ± 0.14 |
| CCCCCCC [heptane] + CCCCCCCCCC[N+]1(C)CCCC1.O=S(=O)([N-]S(=O)(=O)C(F)(F)F)C(F)(F)F | 4.91 ± 0.52 | 4.75 ± 0.5 | 4.62 ± 0.49 | – | – | – | – |
| CCCCCCC [heptane] + CCCCCCCC[N+]1(C)CCCC1.O=S(=O)([N-]S(=O)(=O)C(F)(F)F)C(F)(F)F | – | – | – | 6.4 ± 0.67 | 6.06 ± 0.64 | 5.13 ± 0.54 | – |
| CCCCCCC [heptane] + CCCCCC[N+]1(C)CCCC1.O=S(=O)([N-]S(=O)(=O)C(F)(F)F)C(F)(F)F | – | – | – | – | 9.43 ± 0.99 | 9.58 ± 1 | 10.6 ± 1.1 |
| C=CCCCC [hex-1-ene] + CCCCCCCCCC[N+]1(C)CCCC1.O=S(=O)([N-]S(=O)(=O)C(F)(F)F)C(F)(F)F | 2.68 ± 0.28 | 2.62 ± 0.28 | 2.57 ± 0.27 | – | – | – | – |
| C=CCCCC [hex-1-ene] + CCCCCCCC[N+]1(C)CCCC1.O=S(=O)([N-]S(=O)(=O)C(F)(F)F)C(F)(F)F | – | – | – | 3.17 ± 0.33 | 3.02 ± 0.32 | 2.58 ± 0.27 | – |

| SMILES | activity coefficient (322.6 K) | activity coefficient (332.5 K) | activity coefficient (342.8 K) | activity coefficient (323 K) | activity coefficient (333 K) | activity coefficient (343.1 K) | activity coefficient (322.9 K) |
| --- | --- | --- | --- | --- | --- | --- | --- |
| C=CCCCC [hex-1-ene] + CCCCCC[N+]1(C)CCCC1.O=S(=O)([N-]S(=O)(=O)C(F)(F)F)C(F)(F)F | – | – | – | – | 4.63 ± 0.49 | 4.44 ± 0.47 | 4.56 ± 0.48 |
| CCCCCC [hexane] + CCCCCCCCCC[N+]1(C)CCCC1.O=S(=O)([N-]S(=O)(=O)C(F)(F)F)C(F)(F)F | 3.97 ± 0.42 | 3.78 ± 0.4 | 3.68 ± 0.39 | – | – | – | – |
| CCCCCC [hexane] + CCCCCCCC[N+]1(C)CCCC1.O=S(=O)([N-]S(=O)(=O)C(F)(F)F)C(F)(F)F | – | – | – | 5.01 ± 0.53 | 4.8 ± 0.5 | 4.05 ± 0.43 | – |
| CCCCCC [hexane] + CCCCCC[N+]1(C)CCCC1.O=S(=O)([N-]S(=O)(=O)C(F)(F)F)C(F)(F)F | – | – | – | – | 7.38 ± 0.78 | 7.11 ± 0.75 | 7.74 ± 0.81 |
| CO [methanol] + CCCCCCCCCC[N+]1(C)CCCC1.O=S(=O)([N-]S(=O)(=O)C(F)(F)F)C(F)(F)F | 1.61 ± 0.17 | 1.32 ± 0.14 | 1.36 ± 0.14 | – | – | – | – |
| CO [methanol] + CCCCCCCC[N+]1(C)CCCC1.O=S(=O)([N-]S(=O)(=O)C(F)(F)F)C(F)(F)F | – | – | – | 0.97 ± 0.1 | 1.09 ± 0.11 | 0.71 ± 0.07 | – |
| CO [methanol] + CCCCCC[N+]1(C)CCCC1.O=S(=O)([N-]S(=O)(=O)C(F)(F)F)C(F)(F)F | – | – | – | – | 1.77 ± 0.18 | 0.95 ± 0.1 | 0.94 ± 0.1 |
| CC1CCCCC1 [methylcyclohexane] + CCCCCCCCCC[N+]1(C)CCCC1.O=S(=O)([N-]S(=O)(=O)C(F)(F)F)C(F)(F)F | 3.38 ± 0.36 | 3.28 ± 0.34 | 3.15 ± 0.33 | – | – | – | – |
| CC1CCCCC1 [methylcyclohexane] + CCCCCCCC[N+]1(C)CCCC1.O=S(=O)([N-]S(=O)(=O)C(F)(F)F)C(F)(F)F | – | – | – | 4.22 ± 0.44 | 4.04 ± 0.42 | 3.9 ± 0.41 | – |
| CC1CCCCC1 [methylcyclohexane] + CCCCCC[N+]1(C)CCCC1.O=S(=O)([N-]S(=O)(=O)C(F)(F)F)C(F)(F)F | – | – | – | – | 6.07 ± 0.64 | 6.03 ± 0.63 | 6.57 ± 0.69 |
| CC1CCCC1 [methylcyclopentane] + CCCCCCCCCC[N+]1(C)CCCC1.O=S(=O)([N-]S(=O)(=O)C(F)(F)F)C(F)(F)F | 2.9 ± 0.3 | 2.76 ± 0.29 | 2.66 ± 0.28 | – | – | – | – |
| CC1CCCC1 [methylcyclopentane] + CCCCCCCC[N+]1(C)CCCC1.O=S(=O)([N-]S(=O)(=O)C(F)(F)F)C(F)(F)F | – | – | – | 3.13 ± 0.33 | 3.36 ± 0.35 | 2.84 ± 0.3 | – |
| CC1CCCC1 [methylcyclopentane] + CCCCCC[N+]1(C)CCCC1.O=S(=O)([N-]S(=O)(=O)C(F)(F)F)C(F)(F)F | – | – | – | – | 4.52 ± 0.47 | 4.76 ± 0.5 | 4.9 ± 0.51 |
| C[N+](=O)[O-] [nitromethane] + CCCCCCCCCC[N+]1(C)CCCC1.O=S(=O)([N-]S(=O)(=O)C(F)(F)F)C(F)(F)F | 0.63 ± 0.07 | 0.62 ± 0.07 | 0.6 ± 0.06 | – | – | – | – |
| C[N+](=O)[O-] [nitromethane] + CCCCCCCC[N+]1(C)CCCC1.O=S(=O)([N-]S(=O)(=O)C(F)(F)F)C(F)(F)F | – | – | – | 0.54 ± 0.06 | 0.51 ± 0.06 | 0.48 ± 0.05 | – |
| C[N+](=O)[O-] [nitromethane] + CCCCCC[N+]1(C)CCCC1.O=S(=O)([N-]S(=O)(=O)C(F)(F)F)C(F)(F)F | – | – | – | – | 0.57 ± 0.06 | 0.56 ± 0.06 | 0.57 ± 0.06 |
| CCCCCCCCC [nonane] + CCCCCCCCCC[N+]1(C)CCCC1.O=S(=O)([N-]S(=O)(=O)C(F)(F)F)C(F)(F)F | 8.32 ± 0.87 | 8.01 ± 0.84 | 7.65 ± 0.8 | – | – | – | – |
| CCCCCCCCC [nonane] + CCCCCCCC[N+]1(C)CCCC1.O=S(=O)([N-]S(=O)(=O)C(F)(F)F)C(F)(F)F | – | – | – | 11.3 ± 0.67 | 10.7 ± 0.64 | 9.14 ± 0.55 | – |
| CCCCCCCCC [nonane] + CCCCCC[N+]1(C)CCCC1.O=S(=O)([N-]S(=O)(=O)C(F)(F)F)C(F)(F)F | – | – | – | – | 18.2 ± 1.9 | 18.5 ± 1.9 | 21.1 ± 2.2 |
| CCCCCCCC [octane] + CCCCCCCCCC[N+]1(C)CCCC1.O=S(=O)([N-]S(=O)(=O)C(F)(F)F)C(F)(F)F | 6.13 ± 0.64 | 5.92 ± 0.62 | 5.76 ± 0.61 | – | – | – | – |
| CCCCCCCC [octane] + CCCCCCCC[N+]1(C)CCCC1.O=S(=O)([N-]S(=O)(=O)C(F)(F)F)C(F)(F)F | – | – | – | 8.1 ± 0.85 | 7.8 ± 0.82 | 6.54 ± 0.69 | – |
| CCCCCCCC [octane] + CCCCCC[N+]1(C)CCCC1.O=S(=O)([N-]S(=O)(=O)C(F)(F)F)C(F)(F)F | – | – | – | – | 13.4 ± 1.4 | 12.9 ± 1.4 | 14.2 ± 1.5 |
